Results on 8 compounds are retold here after ChEMBL document CHEMBL4831511, “Fluorovinylsulfones and -Sulfonates as Potent Covalent Reversible Inhibitors of the Trypanosomal Cysteine Protease Rhodesain: Structure-Activity Relationship, Inhibition Mechanism, Metabolism, and In Vivo Studies” (J Med Chem, 2021).

The target in series [1] is Rhodesain (Trypanosoma brucei rhodesiense) (UniProt Q95PM0). As to the kind of experiment: Inhibition of Trypanosoma brucei rhodesain assessed as rate constant of dissociation of the final complex using Cbz-Phe-Arg-AMC as substrate by fluorometric enzyme assays.
Chain of Rhodesain (Trypanosoma brucei rhodesiense) (Q95PM0 1-450): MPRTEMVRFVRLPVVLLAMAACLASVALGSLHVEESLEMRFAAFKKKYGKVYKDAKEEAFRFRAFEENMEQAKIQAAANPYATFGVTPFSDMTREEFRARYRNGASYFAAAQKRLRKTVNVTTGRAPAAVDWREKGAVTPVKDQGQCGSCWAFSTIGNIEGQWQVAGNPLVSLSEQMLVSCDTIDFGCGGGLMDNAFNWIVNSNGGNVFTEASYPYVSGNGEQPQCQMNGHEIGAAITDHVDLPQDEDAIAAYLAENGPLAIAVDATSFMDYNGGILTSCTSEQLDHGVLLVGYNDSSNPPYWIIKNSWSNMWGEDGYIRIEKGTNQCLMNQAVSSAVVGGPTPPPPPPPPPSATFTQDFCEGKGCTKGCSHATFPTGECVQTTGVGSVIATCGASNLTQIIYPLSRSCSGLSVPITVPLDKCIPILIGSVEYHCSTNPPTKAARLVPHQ
Series [2] has as its system cathepsin L (CatL) versus rhodesain. Briefly: Selectivity index, ratio of Ki for human liver CatL to Trypanosoma brucei rhodesain. Particulars: read-out: Selectivity Index.
For series [3], the species on record is Homo sapiens. Briefly: Inhibition of caspase-like activity of human 20S proteasome at 11 uM using Cbz-Leu-Leu-Glu-AMC as fluorogenic substrate by microplate reader relative to control.
The target of series [4] is Rhodesain (Trypanosoma brucei rhodesiense) (UniProt Q95PM0). Briefly: Inhibition of Trypanosoma brucei rhodesain assessed as rate constant of association using Cbz-Phe-Arg-AMC as substrate by fluorometric enzyme assays.
The target of series [5] is T1, Procathepsin L (Homo sapiens, UniProt P07711). As to the kind of experiment: Inhibition of human liver CatL assessed as fluorescence using Cbz-Phe-Arg-AMC as substrate measured at second inhibition step by fluorometric enzyme assays.
T1 sequence (P07711 whole entry): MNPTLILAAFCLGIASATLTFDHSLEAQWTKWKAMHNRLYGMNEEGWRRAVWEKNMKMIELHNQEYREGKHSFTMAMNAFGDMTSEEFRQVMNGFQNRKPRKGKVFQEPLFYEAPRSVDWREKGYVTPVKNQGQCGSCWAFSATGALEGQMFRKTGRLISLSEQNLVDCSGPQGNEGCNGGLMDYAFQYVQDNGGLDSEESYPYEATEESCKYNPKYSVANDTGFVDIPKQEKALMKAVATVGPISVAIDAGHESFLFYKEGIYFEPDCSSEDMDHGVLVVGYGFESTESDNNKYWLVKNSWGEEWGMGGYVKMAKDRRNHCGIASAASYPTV
Series [6] addresses T1, Procathepsin L. Briefly: Inhibition of human CatL assessed as fluorescence using Cbz-Phe-Arg-AMC as substrate measured using Dixon equation by fluorometric enzyme assays. On the set-up: species or system Liver.
The subject of series [7] is HeLa. Briefly: Cytotoxicity against human HeLa cells by Alamar blue assay. The series is classed as functional. On the technique in general: The colour change of resazurin is a common sign of viable cells or microbes.
In series [8] the test system is Trypanosoma brucei brucei. Briefly: Antiprotozoal activity against Trypanosoma brucei brucei BS449 assessed as luminescence incubated for 24 to 48 hrs by ATPlite assay. Format: functional, organism-based. Background: In ATP-based viability assays light output follows the ATP content of the culture.
Series [9] deals with T2, Cathepsin B (Homo sapiens, UniProt P07858). Briefly: Inhibition of human liver CatB assessed as fluorescence using Cbz-Phe-Arg-AMC as substrate by fluorometric enzyme assays.
The test system of series [10] is Dengue virus. As to the kind of experiment: Inhibition of Dengue virus NS2B-NS3 protease assessed as fluorescent emission using boc-Gly-Arg-Arg-AMC at 11 uM by microplate reader relative to control.
The target in series [11] is T3, Rhodesain (Trypanosoma brucei rhodesiense, UniProt Q95PM0). Briefly: Inhibition of Trypanosoma brucei rhodesain assessed as fluorescence using Cbz-Phe-Arg-AMC as substrate measured at second inhibition step by fluorometric enzyme assays.
T3 sequence (Q95PM0 whole entry): as the sequence (Q95PM0 1-450) above
The species entered for series [12] is Homo sapiens. Briefly: Inhibition of alpha-chymotrypsin-like activity of human 20S proteasome at 11 uM using Succ-Leu-Leu-Val-Tyr-AMC as fluorogenic substrate by microplate reader relative to control.
Series [13] deals with Proteasome Macropain subunit (Homo sapiens) (UniProt P49721). As to the kind of experiment: Inhibition of trypsin-like activity of human 20S proteasome at 11 uM using boc-Leu-Arg-Arg-AMC as fluorogenic substrate by microplate reader relative to control.
Chain of Proteasome Macropain subunit (Homo sapiens) (P49721 whole entry): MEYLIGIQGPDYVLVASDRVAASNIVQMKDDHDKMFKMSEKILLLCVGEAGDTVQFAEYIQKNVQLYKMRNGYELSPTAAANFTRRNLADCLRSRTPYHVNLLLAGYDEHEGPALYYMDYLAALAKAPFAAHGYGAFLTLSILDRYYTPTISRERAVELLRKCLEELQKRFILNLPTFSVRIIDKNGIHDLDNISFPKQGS
For series [14], the target named is T3, Rhodesain. As to the kind of experiment: Inhibition of Trypanosoma brucei rhodesain assessed as fluorescence using Cbz-Phe-Arg-AMC as substrate measured using Dixon equation by fluorometric enzyme assays.
Series [15] addresses Rhodesain (Trypanosoma brucei rhodesiense) (UniProt Q95PM0). Briefly: Binding affinity to Trypanosoma brucei rhodesain assessed as protein-ligand adducts by MALDI-TOF MS analysis.
The target is the same in series [16]. As to the kind of experiment: Reversible inhibition of Trypanosoma brucei rhodesain assessed as reversibility by measuring residual enzymatic activity using Cbz-Phe-Arg-AMC as substrate after 1 hr by fluorometry based dialysis experiment relative to control.
The test system of series [17] is Trypanosoma brucei brucei. Briefly: Antiprotozoal activity against Trypanosoma brucei brucei TC211 assessed as luminescence incubated for 24 to 48 hrs by ATPlite assay. The series is classed as functional, organism-based.
Series [18] deals with T2, Cathepsin B. Briefly: Inhibition of human liver CatB assessed as fluorescence using Cbz-Phe-Arg-AMC as substrate at 11 uM by fluorometric enzyme assays.
Series [19] addresses Rhodesain (Trypanosoma brucei rhodesiense) (UniProt Q95PM0). Briefly: Reversible inhibition of Trypanosoma brucei rhodesain assessed as reversibility using Cbz-Phe-Arg-AMC as substrate by dilution assay.
Series [20] has as its target T3, Rhodesain. As to the kind of experiment: Competitive inhibition of Trypanosoma brucei rhodesain assessed as fluorescence using Cbz-Phe-Arg-AMC as substrate by fluorometric enzyme assays.
For series [21], the target named is Rhodesain (Trypanosoma brucei rhodesiense) (UniProt Q95PM0). Briefly: Reversible inhibition of Trypanosoma brucei rhodesain assessed as fluorescence using Cbz-Phe-Arg-AMC as substrate by fluorometric enzyme assays.
For series [22], the system named is J774.1. As to the kind of experiment: Cytotoxicity against mouse J774.1 cells by Alamar blue assay. Format: functional.

The source made the active and inactive calls. No cut-off for these calls is given here.

Take `O=C(N[C@@H](Cc1ccccc1)C(=O)N[C@H](/C=C(\F)S(=O)(=O)Oc1ccccc1)CCc1ccccc1)c1ccncc1`: the K in series [1] stood at 0.01 s⁻¹; in series [4], 0.055 s⁻¹. Further, the selectivity ratio in series [2] is 4. The values for the inhibition in series [3] and in series [12] were 22% and 11%, respectively. The Ki in series [5] was 258 nM; in [6], 60 nM; in series [9] it was 1700 nM; in series [11] it was 98 nM; in series [14], 15 nM. In [7], this compound showed a CC50 greater than 100000 nM. Besides, the EC50 in series [8] was determined as 4800 nM. Besides, the inhibition result in series [10] and in series [13] was “inactive” in each case. The outcome in series [15] was Active.
In the case of `Cc1ccc(C[C@H](NC(=O)c2ccncc2)C(=O)N[C@H](/C=C(\F)S(=O)(=O)Oc2ccccc2)CCc2ccccc2)cc1`, the K in [1] came out at 0.01 s⁻¹; in series [4], 0.075 s⁻¹. In addition, the Activity in [16] was 89%. Further, the selectivity ratio in [2] is 26. The inhibition in series [3] came out at 44%; in [18], 38%; in series [12] it was 20%; in series [13], 10%. For the same compound, the Ki was 313 nM in series [5], 78 nM in series [6], 24 nM in series [11] and 3 nM in [14]. Further, the CC50 in series [7] was greater than 100000 nM. Further, the EC50 in series [17] is 1900 nM. For the same compound, in [10], the inhibition result was “inactive”.
Consider `Cc1ccc(C[C@H](NC(=O)c2ccncc2)C(=O)N[C@H](/C=C(\F)S(=O)(=O)Cc2ccccc2)CCc2ccccc2)cc1`, for which, in series [16], the Activity was 47%. Also, the outcome in series [19] and in series [21] was Active. Besides, the selectivity ratio in series [2] came out at 12. The inhibition entry in [3], in [10], in series [12] and in series [13] was “inactive” throughout. Moreover, the Ki in series [5] was found to be 181 nM; in series [20], 25 nM; in series [11] it was 15 nM. The CC50 in series [7] was greater than 100000 nM. For the same compound, the EC50 in [17] was 1400 nM. In addition, the inhibition in series [18] came to 35%.
For `CSCC[C@@H](/C=C(\F)S(=O)(=O)c1ccccc1)NC(=O)[C@H](Cc1ccccc1)NC(=O)c1ccncc1`, the selectivity ratio in series [2] came to 10. Besides, the inhibitory constant (Ki) in series [5] amounted to 577 nM; in series [9] it was 1000 nM; in series [11] it was 56 nM.
Turning to `O=C(N[C@@H](Cc1ccccc1)C(=O)N[C@H](/C=C(\F)S(=O)(=O)c1ccccc1)CCc1ccccc1)c1ccncc1`, the outcome in series [19] and in series [21] was Active. The inhibition in series [3] was found to be 41%; in [12] it was 10%. Also, in series [20], the Ki came out at 47 nM. The cytotoxic concentration (CC50) in [7] and in series [22] was greater than 100000 nM in each case. The EC50 in series [8] amounted to 3000 nM. The inhibition entry in series [10] and in [13] was “inactive” in each case.
`Cc1ccc(C[C@H](NC(=O)c2ccc3c(c2)OCCO3)C(=O)N[C@H](/C=C(\F)S(=O)(=O)c2ccccc2)CCc2ccccc2)cc1`: the CC50 in series [7] is greater than 100000 nM. In addition, in series [17], the EC50 stood at 800 nM.
For `Cc1ccc(C[C@H](NC(=O)c2ccncc2)C(=O)N[C@H](/C=C(\F)S(=O)(=O)c2ccccc2)CCc2ccccc2)cc1`, in [16], the Activity was 29%. Besides, the inhibition in series [3] came out at 28%; in series [12], 13%; in series [13], 12%. Also, in series [7], the CC50 is greater than 100000 nM. In addition, the EC50 in series [17] was 1900 nM.
Take `Cc1ccc(C[C@H](NC(=O)c2ccc3c(c2)OCCO3)C(=O)N[C@H](/C=C(\F)S(=O)(=O)Oc2ccccc2)CCc2ccccc2)cc1`: the K turned out to be 0.005 s⁻¹ in series [1] and 0.065 s⁻¹ in [4]. In [2], the selectivity ratio is 6. For the same compound, the inhibition was determined as 31% in series [3], 14% in series [18], 11% in series [10] and 22% in [12]. The inhibitory constant (Ki) in [5] amounted to 348 nM; in series [6] it was 39 nM; in series [11] it was 98 nM; in series [14] it was 7 nM. Besides, in series [7], the CC50 is greater than 100000 nM. The EC50 in series [8] is 140 nM. Moreover, the inhibition entry in series [13] is “inactive”.

A word on the inhibition: it is the relative decrease from the control value, in per cent. The term Ki denotes the equilibrium dissociation constant of an inhibitor or competing ligand from its target. The CC50 is the concentration that lowers cell viability or growth by half. Read a high CC50 as lower toxicity to the cells. A word on the EC50: it is the midpoint of the concentration-response curve.
